# Assay results from patent US20040221332A1, “Plant growth regulating genes, proteins and uses thereof” (priority 2001, published 2004).
# Where two headings read alike, the source gives them in different places.
# B1: OsPSK: rice growth regulating polypeptide, prepro-phytosulfokine (SEQ ID NO 104/105), overexpressed in transgenic Arabidopsis under sunflower ubiquitin promoter (protein, listed as Oryza sativa)
# chain: MVNPGRTARALCLLCLALLLLGQDTHSRKLLLQEKHSHGVGNGTTTTQEPSRENGGSTGSNNNGQLQFDSAKWEEFHTDYIYTQDVKNP
# Experiments:
# [1] = tested on: OsGREP1 transcript levels; experiment: RNA gel blot of OsGREP1 mRNA in deepwater rice stem sections treated with gibberellin; design: species or system Oryza sativa; details: 50 μM GA3, stem sections, meristematic zone, within 30 minutes and again 15 h after onset
# Method: Analysis of hormone and inhibitor effects was performed using excised stem segments containing the youngest growth-responsive internode (Raskin & Kende, 1984). Growth of the stem sections was induced by application of 50 μM GA3 for the times indicated. To inhibit protein synthesis, stem sections were incubated in aqueous solutions of cycloheximide for the times indicated. Plant tissue for RNA extraction was harvested on ice and immediately after harvest frozen in liquid nitrogen. Meristematic tissue was harvested from 0 to 5 mm above the second youngest node, i.e. the intercalary meristem (IM). […]
# To determine gene expression under different conditions and in different rice tissues, mRNA abundance of OsGREP1 was analyzed by RNA gel blot hybridization. […]
# mRNA abundance of OsGREP1 was also analyzed in different tissues of adult rice plants and seedlings and in suspension-cultured rice cells by RNA gel blot analysis (FIG. 7). […] OsGREP1 mRNA can also be detected in suspension-cultured cells but at lower levels than in all other tissues. […] Stem sections containing the IM and EZ of the internode were treated with 50 μM GA3 and analyzed for expression of OsGREP1 by RNA gel blot hybridization 0, […], 1, 3, 6 and 15 h after treatment (FIG. 8).
# OsGREP1 transcripts = experiment: RNA gel blot of OsGREP1 mRNA in deepwater rice internode sections treated with cycloheximide; design: species or system Oryza sativa
# Method: Analysis of hormone and inhibitor effects was performed using excised stem segments containing the youngest growth-responsive internode (Raskin & Kende, 1984). Growth of the stem sections was induced by application of 50 μM GA3 for the times indicated. To inhibit protein synthesis, stem sections were incubated in aqueous solutions of cycloheximide for the times indicated. Plant tissue for RNA extraction was harvested on ice and immediately after harvest frozen in liquid nitrogen. Meristematic tissue was harvested from 0 to 5 mm above the second youngest node, i.e. the intercalary meristem (IM). Cells which are predominately involved in elongation were harvested from 5 to 15 mm above the second youngest node, i.e. the elongation zone (EZ) and differentiated tissue was harvested from the oldest part of the internode below the youngest node, i.e. the differentiation zone (DZ).
# To determine gene expression under different conditions and in different rice tissues, mRNA abundance of OsGREP1 was analyzed by RNA gel blot hybridization. Total RNA was isolated using the TRIzol reagent (Gibco BRL) and precipitated with 4M LiCl as described (Puissant & Houdebine, 1990). […]
# Gene expression of OsGREP1 was also determined by measuring mRNA abundance in IM sections of deepwater rice internodes treated with cycloheximide (CHX) at 0, 0.02, 2, and 20 μg/ml (FIG. 9). […]
# protein synthesis [2] = details: maize, 20 μM CHX; cited from earlier work
# protein synthesis [3] = details: alfalfa, 150 μM; cited from earlier work
# Arabidopsis thaliana = experiment: Phenotypic characterization of transgenic plants transformed with OsPSK (digital imaging of rosette and inflorescence); format: in vivo
# Method: Of 11 different transgenic plant lines of Arabidopsis thaliana (named AE0017, AE0018, AE0019, AE0021, AE0022, AE0023, AE0024, AE0025, AE0026, AE0027 and Os-PSK) 500 mg of seeds is placed in 50 ml plastic tubes. 27 ml of a 0.2% agar solution is added and mixed to suspend the seeds. The said tubes are stored at 4° C. for 3 days to release dormancy. Subsequently, the suspension of seeds was evenly dispensed as drops of 50 μl on a 50 cm by 30 cm tray containing a mixture of sand and soil in a ratio of 1 to 2.
# The trays were placed in the greenhouse under the following conditions: 22° C. at day time, 18° C. at night, 60% RH, 20 hours of photoperiod, subirrigation once a day with water during 15 min. The 4th day and the 10th day after sowing, the seedlings were sprayed with an herbicide solution. The 14th day after sowing, 30 resistant seedlings of each transgenic line were transplanted in individual pots with a diameter of 10 cm containing a mixture of sand and peat in a ratio of 1 to 3.
# Said pots are then placed in the greenhouse under the same conditions as described for the trays. The pots are subirrigated during 15 min. once a week, or more if needed. The 14th, 18th, 21st, 28th, 32nd and 39th day after sowing, the rosettes of each plant were photographed using a digital camera and the pictures were stored for further analysis.
# The 32nd, 38th, 41 st, 46th, 49th, and 53rd day after sowing, the inflorescence of each plant was photographed equally using a digital camera and the pictures were stored for further analysis. The number of pixels corresponding to plant tissues was recorded on each picture, converted to square cm and used as a measurement of plant size.
molecule,measurement,setting,value
"C=C1C[C@]23C[C@@]1(O)CC[C@H]2[C@@]12C=C[C@H](O)[C@@](C)(C(=O)O1)[C@H]2[C@@H]3C(=O)O [GA3, gibberellic acid]",OsGREP1 transcript levels,[1],slight and transient increase
same,OsGREP1 transcript levels,[1]; listed as GA,induced
C[C@@H]1C[C@@H]([C@H](O)CC2CC(=O)NC(=O)C2)C(=O)[C@@H](C)C1 [cycloheximide],OsGREP1 transcripts,"OsGREP1 transcripts; IM sections of deepwater rice internodes, 20 μg/ml (corresponds to 70 μM) CHX",induced
same,cycloheximide concentration at which OsGREP1 transcripts accumulate,"OsGREP1 transcripts; stem sections of deepwater rice, 0 to 20 μg/ml tested",≥ 0.2 µg/mL
same,inhibition of protein synthesis,protein synthesis [2],23%
same,inhibition of protein synthesis,protein synthesis [3],90%
B1,ratio between size of inflorescence before harvest and maximal measured size of the rosette,Arabidopsis thaliana; OsPSK plants vs other transgenic plant lines in the same experiment,significantly higher
same,rosette size,Arabidopsis thaliana; OsPSK transgenic line vs other transgenic lines,slightly bigger
same,plant size,Arabidopsis thaliana; OsPSK transgenic line vs the other transgenic plant lines in the experiment,on average the biggest plants
